From PMC7160233, “Peptides With Triplet-Tryptophan-Pivot Promoted Pathogenic Bacteria Membrane Defects” (Frontiers in Microbiology, 2020)
Where a SMILES comes first, the peptide text is derived from it.

Tests used:
MRSA* 43300 = type: cell-based, methicillin-resistant Staphylococcus aureus; settings: * 43300, 24 h
Procedure: (§1) The antibacterial activity of the peptides was measured using a method adopted from the Clinical Laboratory Standards Institute (CLSI), with modifications. 50 μL bacterial cells solution with 1000-fold of OD600 = 0.4 was mixed with 50 μL of each peptide of various concentration ranged from 2 to 64 μM dissolved in BSA (0.2% with 0.01% acetic acid) and incubated in sterile 96-well plates at 37°C for 24 h. The MICs were calculated as the lowest concentration of peptide with no microbial growth being observed. Broth with microbial cells and uninoculated broth were used as positive control and negative control, respectively. The tests were performed at least three times.

E. coli 25922 = type: cell-based, Escherichia coli; settings: 25922, 24 h
Procedure: as §1

L. plantarum 8014 = type: cell-based; settings: 24 h
Procedure: as §1

E. coli UB 1005 = test: MIC measurement (modified CLSI broth microdilution); type: cell-based, Escherichia coli; settings: peptide 2-64 μM in 0.2% BSA with 0.01% acetic acid, 37°C, 24 h, at least three times
Procedure: as §1

S. epidermidis 12228 = type: cell-based, Staphylococcus epidermidis; settings: 12228, 24 h
Procedure: as §1

P. aeruginosa 27853 = type: cell-based, Pseudomonas aeruginosa; settings: 27853, 24 h
Procedure: as §1

S. aureus 29213 = type: cell-based, Staphylococcus aureus; settings: 29213, 24 h
Procedure: as §1

L. rhamnosus 1.9025 = type: cell-based, Lactobacillus rhamnosus; settings: 24 h
Procedure: as §1

L. rhamnosus 7469 = type: cell-based, Lactobacillus rhamnosus; settings: 24 h
Procedure: as §1

L. rhamnosus 1.0911 = type: cell-based, Lactobacillus rhamnosus; settings: 24 h
Procedure: as §1

L. rhamnosus 1.0386 = type: cell-based, Lactobacillus rhamnosus; settings: 24 h
Procedure: as §1

L. rhamnosus 1.0385 = type: cell-based, Lactobacillus rhamnosus; settings: 24 h
Procedure: as §1

Lactobacillus = type: cell-based; settings: probiotic strains of Table 2
Procedure: as §1

pathogens = test: Geometric mean of MICs against pathogens; type: cell-based; settings: six pathogenic strains of Table 2
Procedure: as §1

E. coli ATCC 25922 = test: Drug resistance experiment (sequential passaging); type: cell-based, Escherichia coli; settings: E. coli 25922, passaged at sub-MIC for 30 days
Procedure: Resistance development of E. coli ATCC 25922 against antibiotics was investigated using a sequential passaging method. Briefly, in the first generation, the MIC value was determined as described previously. After a 24 h incubation, bacterial cells growing in a well with a half-MIC level were harvested and diluted to 0.05 at OD600, followed by a 1:10 dilution in fresh MHB. The inoculum was subjected to subsequent passage MIC testing, and the process was repeated for 30 days. The fold change in MIC was plotted against the number of passages.

## N=C(N)NCCC[C@H](NC(=O)[C@H](CCCNC(=N)N)NC(=O)[C@H](Cc1c[nH]c2ccccc12)NC(=O)[C@H](CS)NC(=O)[C@H](Cc1c[nH]c2ccccc12)NC(=O)[C@H](Cc1c[nH]c2ccccc12)NC(=O)[C@H](Cc1c[nH]c2ccccc12)NC(=O)[C@H](CS)NC(=O)[C@H](Cc1c[nH]c2ccccc12)NC(=O)[C@H](CCCNC(=N)N)NC(=O)[C@@H](N)CCCNC(=N)N)C(N)=O [Peptide S1] (H-RRWCWWWCWRR-NH2; N-terminus assumed)
MRSA* 43300
  MIC MRSA* 43300: 4 μ M
E. coli 25922
  MIC E. coli 25922: >64 μ M
L. plantarum 8014
  MIC L. plantarum 8014: 8 μ M
E. coli UB 1005
  MIC E. coli UB 1005: 16 μ M
S. epidermidis 12228
  MIC S. epidermidis 12228: 8 μ M
P. aeruginosa 27853
  MIC P. aeruginosa 27853: 8 μ M
S. aureus 29213
  MIC S. aureus 29213: 8 μ M
L. rhamnosus 1.9025
  MIC L. rhamnosus 1.9025: >64 μ M
L. rhamnosus 7469
  MIC L. rhamnosus 7469: >64 μ M
L. rhamnosus 1.0911
  MIC L. rhamnosus 1.0911: >64 μ M
L. rhamnosus 1.0386
  MIC L. rhamnosus 1.0386: >64 μ M
L. rhamnosus 1.0385
  MIC L. rhamnosus 1.0385: 16 μ M

## N=C(N)NCCC[C@H](NC(=O)[C@H](CCCNC(=N)N)NC(=O)[C@H](Cc1c[nH]c2ccccc12)NC(=O)[C@H](Cc1ccc(O)cc1)NC(=O)[C@H](Cc1c[nH]c2ccccc12)NC(=O)[C@H](Cc1c[nH]c2ccccc12)NC(=O)[C@H](Cc1c[nH]c2ccccc12)NC(=O)[C@H](Cc1ccc(O)cc1)NC(=O)[C@H](Cc1c[nH]c2ccccc12)NC(=O)[C@H](CCCNC(=N)N)NC(=O)[C@@H](N)CCCNC(=N)N)C(N)=O [Peptide S2] (H-RRWYWWWYWRR-NH2)
MRSA* 43300
  MIC MRSA* 43300: 8 μ M
E. coli 25922
  MIC E. coli 25922: 32 μ M
L. plantarum 8014
  MIC L. plantarum 8014: 4 μ M
E. coli UB 1005
  MIC E. coli UB 1005: 32 μ M
S. epidermidis 12228
  MIC S. epidermidis 12228: 8 μ M
P. aeruginosa 27853
  MIC P. aeruginosa 27853: 8 μ M
S. aureus 29213
  MIC S. aureus 29213: 8 μ M
L. rhamnosus 1.9025
  MIC L. rhamnosus 1.9025: >64 μ M
L. rhamnosus 7469
  MIC L. rhamnosus 7469: >64 μ M
L. rhamnosus 1.0911
  MIC L. rhamnosus 1.0911: >64 μ M
L. rhamnosus 1.0386
  MIC L. rhamnosus 1.0386: 16 μ M
L. rhamnosus 1.0385
  MIC L. rhamnosus 1.0385: 16 μ M

## N=C(N)NCCC[C@H](NC(=O)[C@H](CCCNC(=N)N)NC(=O)[C@H](Cc1c[nH]c2ccccc12)NC(=O)[C@H](CC(N)=O)NC(=O)[C@H](Cc1c[nH]c2ccccc12)NC(=O)[C@H](Cc1c[nH]c2ccccc12)NC(=O)[C@H](Cc1c[nH]c2ccccc12)NC(=O)[C@H](CC(N)=O)NC(=O)[C@H](Cc1c[nH]c2ccccc12)NC(=O)[C@H](CCCNC(=N)N)NC(=O)[C@@H](N)CCCNC(=N)N)C(N)=O [Peptide S3] (H-RRWNWWWNWRR-NH2)
MRSA* 43300
  MIC MRSA* 43300: >64 μ M
E. coli 25922
  MIC E. coli 25922: >64 μ M
L. plantarum 8014
  MIC L. plantarum 8014: >64 μ M
E. coli UB 1005
  MIC E. coli UB 1005: >64 μ M
S. epidermidis 12228
  MIC S. epidermidis 12228: >64 μ M
P. aeruginosa 27853
  MIC P. aeruginosa 27853: >64 μ M
S. aureus 29213
  MIC S. aureus 29213: >64 μ M
L. rhamnosus 1.9025
  MIC L. rhamnosus 1.9025: >64 μ M
L. rhamnosus 7469
  MIC L. rhamnosus 7469: >64 μ M
L. rhamnosus 1.0911
  MIC L. rhamnosus 1.0911: >64 μ M
L. rhamnosus 1.0386
  MIC L. rhamnosus 1.0386: >64 μ M
L. rhamnosus 1.0385
  MIC L. rhamnosus 1.0385: >64 μ M

## N=C(N)NCCC[C@H](NC(=O)[C@H](CCCNC(=N)N)NC(=O)[C@H](Cc1c[nH]c2ccccc12)NC(=O)[C@H](CCC(N)=O)NC(=O)[C@H](Cc1c[nH]c2ccccc12)NC(=O)[C@H](Cc1c[nH]c2ccccc12)NC(=O)[C@H](Cc1c[nH]c2ccccc12)NC(=O)[C@H](CCC(N)=O)NC(=O)[C@H](Cc1c[nH]c2ccccc12)NC(=O)[C@H](CCCNC(=N)N)NC(=O)[C@@H](N)CCCNC(=N)N)C(N)=O [Peptide S4] (H-RRWQWWWQWRR-NH2)
MRSA* 43300
  MIC MRSA* 43300: 4 μ M
E. coli 25922
  MIC E. coli 25922: 4 μ M
L. plantarum 8014
  MIC L. plantarum 8014: 8 μ M
E. coli UB 1005
  MIC E. coli UB 1005: 4 μ M
S. epidermidis 12228
  MIC S. epidermidis 12228: 4 μ M
P. aeruginosa 27853
  MIC P. aeruginosa 27853: 4 μ M
S. aureus 29213
  MIC S. aureus 29213: 4 μ M
L. rhamnosus 1.9025
  MIC L. rhamnosus 1.9025: >64 μ M
L. rhamnosus 7469
  MIC L. rhamnosus 7469: >64 μ M
L. rhamnosus 1.0911
  MIC L. rhamnosus 1.0911: >64 μ M
L. rhamnosus 1.0386
  MIC L. rhamnosus 1.0386: 64 μ M
L. rhamnosus 1.0385
  MIC L. rhamnosus 1.0385: 16 μ M

## C[C@@H](O)[C@H](NC(=O)[C@H](Cc1c[nH]c2ccccc12)NC(=O)[C@H](Cc1c[nH]c2ccccc12)NC(=O)[C@H](Cc1c[nH]c2ccccc12)NC(=O)[C@@H](NC(=O)[C@H](Cc1c[nH]c2ccccc12)NC(=O)[C@H](CCCNC(=N)N)NC(=O)[C@@H](N)CCCNC(=N)N)[C@@H](C)O)C(=O)N[C@@H](Cc1c[nH]c2ccccc12)C(=O)N[C@@H](CCCNC(=N)N)C(=O)N[C@@H](CCCNC(=N)N)C(N)=O [Peptide S5] (H-RRWTWWWTWRR-NH2)
MRSA* 43300
  MIC MRSA* 43300: 4 μ M
E. coli 25922
  MIC E. coli 25922: 2 μ M
L. plantarum 8014
  MIC L. plantarum 8014: >64 μ M
Lactobacillus
  MIC against Lactobacillus: more than 64 μM
E. coli UB 1005
  MIC E. coli UB 1005: 2 μ M
S. epidermidis 12228
  MIC S. epidermidis 12228: 2 μ M
P. aeruginosa 27853
  MIC P. aeruginosa 27853: 4 μ M
S. aureus 29213
  MIC S. aureus 29213: 1 μ M
L. rhamnosus 1.9025
  MIC L. rhamnosus 1.9025: >64 μ M
L. rhamnosus 7469
  MIC L. rhamnosus 7469: >64 μ M
L. rhamnosus 1.0911
  MIC L. rhamnosus 1.0911: >64 μ M
L. rhamnosus 1.0386
  MIC L. rhamnosus 1.0386: >64 μ M
L. rhamnosus 1.0385
  MIC L. rhamnosus 1.0385: >64 μ M
pathogens
  geometric mean (GM) of MICs against pathogens: 2.24 µM

## N=C(N)NCCC[C@H](NC(=O)[C@H](CCCNC(=N)N)NC(=O)[C@H](Cc1c[nH]c2ccccc12)NC(=O)CNC(=O)[C@H](Cc1c[nH]c2ccccc12)NC(=O)[C@H](Cc1c[nH]c2ccccc12)NC(=O)[C@H](Cc1c[nH]c2ccccc12)NC(=O)CNC(=O)[C@H](Cc1c[nH]c2ccccc12)NC(=O)[C@H](CCCNC(=N)N)NC(=O)[C@@H](N)CCCNC(=N)N)C(N)=O [Peptide S6] (H-RRWGWWWGWRR-NH2)
MRSA* 43300
  MIC MRSA* 43300: 16 μ M
E. coli 25922
  MIC E. coli 25922: 4 μ M
L. plantarum 8014
  MIC L. plantarum 8014: >64 μ M
E. coli UB 1005
  MIC E. coli UB 1005: 2 μ M
S. epidermidis 12228
  MIC S. epidermidis 12228: >64 μ M
P. aeruginosa 27853
  MIC P. aeruginosa 27853: 8 μ M
S. aureus 29213
  MIC S. aureus 29213: 16 μ M
L. rhamnosus 1.9025
  MIC L. rhamnosus 1.9025: >64 μ M
L. rhamnosus 7469
  MIC L. rhamnosus 7469: >64 μ M
L. rhamnosus 1.0911
  MIC L. rhamnosus 1.0911: >64 μ M
L. rhamnosus 1.0386
  MIC L. rhamnosus 1.0386: >64 μ M
L. rhamnosus 1.0385
  MIC L. rhamnosus 1.0385: >64 μ M

## N=C(N)NCCC[C@H](NC(=O)[C@H](CCCNC(=N)N)NC(=O)[C@H](Cc1c[nH]c2ccccc12)NC(=O)[C@H](CO)NC(=O)[C@H](Cc1c[nH]c2ccccc12)NC(=O)[C@H](Cc1c[nH]c2ccccc12)NC(=O)[C@H](Cc1c[nH]c2ccccc12)NC(=O)[C@H](CO)NC(=O)[C@H](Cc1c[nH]c2ccccc12)NC(=O)[C@H](CCCNC(=N)N)NC(=O)[C@@H](N)CCCNC(=N)N)C(N)=O [Peptide S7] (H-RRWSWWWSWRR-NH2)
MRSA* 43300
  MIC MRSA* 43300: 2 μ M
E. coli 25922
  MIC E. coli 25922: 4 μ M
L. plantarum 8014
  MIC L. plantarum 8014: >64 μ M
Lactobacillus
  MIC against Lactobacillus: more than 64 μM
E. coli UB 1005
  MIC E. coli UB 1005: 2 μ M
S. epidermidis 12228
  MIC S. epidermidis 12228: 4 μ M
P. aeruginosa 27853
  MIC P. aeruginosa 27853: 4 μ M
S. aureus 29213
  MIC S. aureus 29213: 4 μ M
L. rhamnosus 1.9025
  MIC L. rhamnosus 1.9025: >64 μ M
L. rhamnosus 7469
  MIC L. rhamnosus 7469: >64 μ M
L. rhamnosus 1.0911
  MIC L. rhamnosus 1.0911: >64 μ M
L. rhamnosus 1.0386
  MIC L. rhamnosus 1.0386: >64 μ M
L. rhamnosus 1.0385
  MIC L. rhamnosus 1.0385: >64 μ M
pathogens
  geometric mean (GM) of MICs against pathogens: 3.17 µM

## CN(C)[C@@H]1C(O)=C(C(N)=O)C(=O)[C@@]2(O)C(O)=C3C(=O)c4c(O)cccc4[C@@](C)(O)[C@H]3C[C@@H]12 [tetracycline]
E. coli ATCC 25922
  resistance development (change in MIC on serial passaging): induced rapid resistance acquisition
